According to patent US8088401B2, “Composite material comprising a porous semiconductor impregnated with an organic substance” (Psimedica Limited, priority 2003, dated 2012):
Structures can show the parent of a compound that is named as a salt.

Columns and labels:
[1] = HPLC analysis of drug extracted after incorporation into porous silicon; assay type: physicochemical
Protocol: Following incorporation into the membrane, chlorambucil was extracted and subjected to HPLC analysis. A known amount of the incorporated Chlorambucil/porous silicon (typically 10-15 mg, dependent on the level of incorporation) was placed into a volumetric flask and made up to a volume with 100 ml of ethanol, shaken and sonicated for 30 minutes at 30° C. From this stock solution 25 ml were transferred by pipette to a 100 ml volumetric flask to give the sample solution. Prior to analysis by HPLC the sample was filter through a 0.45 micron filter.
The chromatographic conditions used for this analysis were:—

[2] = Gravimetric loading of porous silicon p+ membrane with beneficial organic substance; assay type: physicochemical; details: for pore volume available occupied by the drug, given as value/drug density / w/w loading (weight gain after drug loading and washing): mesoporous p+ silicon membrane, porosity 63%; for w/w loading (weight gain after drug loading and washing): melt, heated solution or rotary evaporation loading; for maximum w/w loading capacity: 63% porosity silicon matrix, from the density; for pore volume available occupied by the drug: liquid applied directly, 70° C. for 20 minutes
Protocol: The porous membranes were prepared and loaded with beneficial substance according to the following general method:—
A 3 inch diameter p+ wafer (5-15 milli ohm cm) was made mesoporous in a 50:50 by volume mixture of 40 wt % HF and ethanol by anodisation at 35 mA/cm^2 for 90 minutes. […] The membrane was then broken into flakes of weight in the range 10-60 mg for gravimetric and EDX studies of beneficial substance incorporation.
Loading was performed on two similar porous silicon (p+) membranes.
The pore volume available in the porous silicon membrane that can be occupied by the drug is calculated as follows: […]

[3] = Mortality and survival of tumour-bearing nude mice in the chlorambucil study; assay type: in vivo; details: for mortality rate: without porous silicon
Protocol: The following protocol was adopted:— • 1. Culture of human cells and implantation of the tumour cells as solid tumours in nude mice: The carcinoma cell-line was cultured in RPMI and Ham's F-12 media respectively with 10% fetal calf serum in a CO2 incubator and subcultured every two to three days until growing to a number enough for implantation in animals. The cells were then implanted as solid tumors in nude mice]. The cells were collected in HBSS (balanced salt solution). One hundred microliters of cell suspension in HBSS (5×10^6 cells) was injected subcutaneously into right gluteal region of nude mice (female, 6 to 9 week old nude mice with average body weight of 25 g, housed in pathogen-free conditions) using a 25-gauge needle. • 2. Animals groups: Animals were randomly grouped into control 1 (injected with peanut oil), control 2 (injected with porous silicon without drug), free chlorambucil (drug injected without porous silicon directly into tumour or injected via intraperitoneal route) and chlorambucil impregnated porous silicon groups. Each group included 16 to 20 animals. • 3. Injection of chlorambucil impregnated porous silicon in transplanted tumours: On day 14 after implantation of tumours (diameter of the tumour about 1 cm), the chlorambucil impregnated formulation was applied to the centre of the tumours. • 4. Tumour volumetrics: The sizes of implanted tumours in nude mice was estimated every 3 days. The largest and smallest diameters were measured by a vernier caliper and tumour volumes estimated according the formula: V=1/2 ab^2, where a and b are largest and smallest tumour diameters respectively, and V is the tumour volume in cm^3.
The effects of intra-tumoural administered chlorambucil loaded porous silicon on the growth of the tumour was studied and compared with control and systemic therapy groups. The body weight of the animals was estimated by subtracting the tumour volume (cm3) from the total body weight (g) every 3 days. The survival time of each experimental animal was recorded.

[4] = aqueous environment; cited from earlier work
[5] = 55% porous silicon, thin oxidised layers; cited from earlier work

## O=C(O)CCCc1ccc(N(CCCl)CCCl)cc1 [Chlorambucil]
[1]
  degradation after incorporation into and release from porous silicon (HPLC): without significant degradation
[2]
  pore volume available occupied by the drug, given as value/drug density: 88.40 /drug density %
  w/w loading (weight gain after drug loading and washing): 39.19 % w/w
[3]; 720 ug
  mortality rate: 50%
[3]; 1500 ug (2×LD50), intratumour
  mortality rate: 90%
[3]; nude mice, dose per animal
  LD50: 720 µg
[4]
  apparent activation energy for thermal degradation (Ea): 24.4 kcal/mol

## CCN(CC)CCOC(=O)c1ccc(N)cc1 [Procaine]
[2]; EtOH:dH2O 1:1 solution, 110° C., 25 minutes
  loading w/v: 71.38 % w/v
[2]
  w/w loading (weight gain after drug loading and washing): 35.33 % w/w

## CC(=O)O[C@]1(C(C)=O)CC[C@H]2[C@@H]3C[C@H](C)C4=CC(=O)CC[C@]4(C)[C@H]3CC[C@@]21C [Medroxyprogesteron Acetate]
[2]
  w/w loading (weight gain after drug loading and washing): 19.81 % w/w

## c1ccc([C@H]2CN3CCSC3=N2)cc1 [Levamisole HCl]
[2]
  pore volume available occupied by the drug, given as value/drug density: 64 /drug density %
  w/w loading (weight gain after drug loading and washing): 32.93 % w/w

## CCCCCCCCCCCC(=O)O [Lauric Acid]
[2]
  pore volume available occupied by the drug, given as value/drug density: 55.62 /drug density %
  w/w loading (weight gain after drug loading and washing): 42.57 % w/w

## CC1=CC(=O)c2c(O)cccc2C1=O [Plumbagin]
[2]
  pore volume available occupied by the drug, given as value/drug density: 98.50 /drug density %
  w/w loading (weight gain after drug loading and washing): 34.68 % w/w

## albumin
[5]
  volume percentage adsorbed: 10.7%

## CN(C)CCC=C1c2ccccc2CCc2ccccc21 [Amitriptyline HCl]
[2]
  pore volume available occupied by the drug, given as value/drug density: 74.07 /drug density %
  w/w loading (weight gain after drug loading and washing): 35.07 % w/w

## O=P1(N(CCCl)CCCl)NCCCO1 (centres unmarked) [Cyclophosohamide]
[2]
  pore volume available occupied by the drug, given as value/drug density: 104 /drug density %
  w/w loading (weight gain after drug loading and washing): 44.4 % w/w

## CS(=O)(=O)OCCCCOS(C)(=O)=O [Busulfan]
[2]
  pore volume available occupied by the drug, given as value/drug density: 78.53 /drug density %
  w/w loading (weight gain after drug loading and washing): 37.54 % w/w

## Vitamin K
[2]
  maximum w/w loading capacity: 42%
  pore volume available occupied by the drug: 80%
  w/w loading (weight gain after drug loading and washing): 36 % w/w

## CC(C)Cc1ccc(C(C)C(=O)O)cc1 (stereo not drawn) [S-(+)-Ibuprofen]
[2]
  w/w loading (weight gain after drug loading and washing): 40.67 % w/w

## Cc1c(C)c2c(c(C)c1O)CC[C@@](C)(CCC[C@H](C)CCC[C@H](C)CCCC(C)C)O2 [Vitamin E, α-tocopherol]
[2]
  maximum w/w loading capacity: 41%
  pore volume available occupied by the drug: 88%
  w/w loading (weight gain after drug loading and washing): 37 % w/w

## CC(=O)O[C@H]1C(=O)[C@@]2(C)[C@H]([C@H](OC(=O)c3ccccc3)[C@]3(O)C[C@H](OC(=O)[C@H](O)[C@@H](NC(=O)c4ccccc4)c4ccccc4)C(C)=C1C3(C)C)[C@]1(OC(C)=O)CO[C@@H]1C[C@@H]2O [Paclitaxel]
[1]
  degradation after incorporation into and release from porous silicon (HPLC): without significant degradation
[2]
  w/w loading (weight gain after drug loading and washing): 16.71 % w/w
